Literature values in US9681659B2, “Agrochemical formulation comprising encapsulated pesticide” (BASF SE, priority 2011, dated 2017).
In brackets after ≈: the same amount, converted by molar mass.

Compound	solubility values (in water) (all data at 20° C., examples for aprotic, polar solvent B)	solubilities in water (in water, examples for pesticide A)
CC1=CC(=O)CC(C)(C)C1 [isoporone]	15 mg/mL (≈ 109 mM)	
COc1cc(C)c(C(=O)c2c(OC)ccc(Br)c2C)c(OC)c1OC [metrafenon]		0.5 mg/L
